Experimental data reported in BindingDB's records for doi:10.1021/bi400945y (Johns Hopkins Bloomberg School of Public Health, 2013).

The compounds below were run against T1, Enoyl-acyl carrier reductase ENR (Toxoplasma gondii, UniProt Q6UCJ9) (assay: TgENR Inhibition Assay). Conditions: pH 7.5.
T1 sequence (Q6UCJ9 whole entry): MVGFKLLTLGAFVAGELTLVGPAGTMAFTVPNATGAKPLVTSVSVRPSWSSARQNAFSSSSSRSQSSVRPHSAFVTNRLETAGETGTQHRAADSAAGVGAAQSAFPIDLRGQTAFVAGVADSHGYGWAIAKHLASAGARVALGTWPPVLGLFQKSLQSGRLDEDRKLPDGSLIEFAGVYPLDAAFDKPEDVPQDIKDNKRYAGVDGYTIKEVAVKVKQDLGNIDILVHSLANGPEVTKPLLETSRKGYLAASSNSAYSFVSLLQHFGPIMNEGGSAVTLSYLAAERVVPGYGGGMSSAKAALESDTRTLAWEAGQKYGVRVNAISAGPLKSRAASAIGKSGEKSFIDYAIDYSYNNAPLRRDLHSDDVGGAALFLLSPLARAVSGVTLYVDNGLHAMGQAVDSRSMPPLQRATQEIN
Cc1cc(CC(=O)NCc2ccc(Oc3ccc(Cl)cc3O)c(Cl)c2)on1 [N‐{[3‐chloro‐4‐(4‐chloro‐2‐ hydroxyphenoxy)phenyl]methyl}‐2‐(3‐methyl‐1,2‐ oxazol‐5‐yl)acetamide (28)] was tested, and the IC50 was 33 nM.
Work on CCc1ccc(Oc2ccc(Cl)cc2Cl)c(O)c1 [2‐(2,4‐dichlorophenoxy)‐5‐ethylphenol (11)] yielded an IC50 of 8 nM.
With Oc1ccc(Oc2ccc(Cl)cc2O)c(Cl)c1 the IC50 was 3 nM.
Compound Oc1cc(Cl)ccc1Oc1ccc(CNc2ccccc2)cc1Cl [5‐chloro‐2‐{2‐chloro‐4‐ [(phenylamino)methyl]phenoxy}phenol (26)] has an IC50 of 31 nM.
CCCCc1cn(Cc2ccc(Oc3ccc(Cl)cc3O)c(Cl)c2)nn1 [2‐{4‐[(4‐butyl‐1,2,3‐triazol‐1‐yl)methyl]‐2‐ chlorophenoxy}‐5‐chlorophenol (25)] gave an IC50 of 43 nM.
Compound Oc1cc(Cl)ccc1Oc1ccc(NCc2ccccc2)cc1Cl has an IC50 of 13 nM.
Work on Cc1cc(C(=O)NCc2ccc(Oc3ccc(Cl)cc3O)c(Cl)c2)no1 [N‐{[3‐chloro‐4‐(4‐chloro‐2‐ hydroxyphenoxy)phenyl]methyl}‐5‐methyl‐1,2‐oxazole‐3‐ carboxamide (29)] yielded an IC50 of 100 nM.
Oc1cc(Cl)ccc1Oc1ccc(Cn2ccnn2)cc1Cl [5‐chloro‐2‐[2‐chloro‐4‐(1,2,3‐triazol‐1‐ ylmethyl)phenoxy]phenol (24)] gave an IC50 of 26 nM.
Compound N#Cc1ccc(Oc2ccc(Cl)cc2Cl)c(O)c1 [4‐(2,4‐dichlorophenoxy)‐3‐hydroxybenzonitrile (19)] has an IC50 of 24 nM.
Compound N#Cc1ccccc1CNc1ccc(Oc2ccc(Cl)cc2O)c(Cl)c1 has an IC50 of 16 nM.
